Laboratory results as given in patent US7157092B1, “Acyl pseudodipeptides, preparation method and pharmaceutical compositions containing same” (Om Pharma, priority 1998, dated 2007).

How the values were obtained:
[1] = system: Pb CS 245-252 T-cell epitope; experiment: Murine immunization with Pb CS His6-242-310 peptide: CTL response (γ IFN ELISPOT); conditions: 0.05 mg adjuvant + 0.02 mg antigen s.c.; FIGS. 17-20
[2] = system: limulus amoebocyte lysate (LAL); experiment: Chromogenic Limulus Amoebocyte Lysate (LAL) endotoxicity test; format: biochemical; conditions: for LAL activity in EU/mg: mean ± standard deviation
Method: Endotoxicity was determined by a chromogenic Limuls Amoebocyte Lysate test (Chromogenic LAL of Charles River Endosafe, batch # EK412E, Charleston, USA). This test is based on activation by a lipopolysaccharide (LPS) or structurally analogous products, of an enzymatic cascade present in LAL.
The enzymatic reaction is conducted at 37° C. and the time-course chromogen formation is measured at 405 nm. In the final stage of this time-course determination assay, the time required to achieve an OD of 0.2 unit is recorded and the endotoxic activity is calculated based on an LPS standard (standard curve).
Results are expressed in EU (Endotoxin Unit) in relation to a standardized preparation of E. coli lipolysaccharides. For this series of assays, 1 EU corresponds to […] of LPS equivalent.
It is mandatory to compare the quantitative assay of the pyrogen content with a given well standardized single series of experiments.

murine macrophage cells = experiment: Nitric oxide production in supernatants of macrophage cultures (Griess); format: cell-based, C57/BL6 mice; conditions: 22 hours incubation, Griess reagent; FIG. 2
Method: Two six-week old male C57/BL6 mice were killed by CO2 inhalation followed by cervical dislocation. The mice were washed with alcohol, and the skin of the posterior members was entirely removed. The hip, the femur and the tibia bones were removed by joint disruption. The flesh was grossly removed using a scalpel. The bones were cleaned and the bone ends were cut with scissors. The marrrow was aspirated by injecting three times 1 ml of Dulbecco's Modified Eagle Medium (DH medium) in the bone lumen. The cells were resuspended in DH medium and centrifuged at 300×g for 5 minutes. The supernatant fluid was discarded and the cells were resuspended at a density of 40 000 cells/ml in DH medium supplemented with 20% horse serum (HS) and 30% L929 culture supernatant. L929 is a murine fibroblast cell line the supernatant fluid of which is rich in growth factor for macrophage (M-CSF). […]
After 22 hours, the microtiter plates were centrifuged, 5 minutes at 400×g and 100 μl of supernatant fluid were withdrawn and transferred into a microtiter plate. […] The microtiter plates were read with a spectrophotometer at 562 nm wavelength against a reference at 690 nm. […]
The results are expressed as mean±standard deviation after deduction of the negative control value and plotted as a dose versus response curve.

[3] = system: Pb CS His6-242-310 antigen; experiment: Murine immunization with Pb CS His6-242-310 peptide: specific antibody titer (ELISA); format: in vivo, BALB/c mice; conditions: 0.05 mg adjuvant + 0.02 mg antigen s.c.; for serological response following three shots: ELISA 2 weeks after third shot, FIG. 15; for anti-Pb CS His6-242-310 antibody titer after one single shot: ELISA 3 weeks after first shot, FIG. 13; for serological response after two shots: ELISA 4 weeks after second shot, FIG. 14
Method: Antigen: Pb CS([…] Chem., 8: (1979) 350–341).
Serum sampling: Blood sampling is conducted at weeks 0, 3, 7 and 9. Blood is allowed to stand for 6 min. at 37° C., then is kept overnight at 4° C. Serum is subsequently frozen at −80° C. until time of antibody assay.
Assay of antibodies specifically raised against Pb Cs His6 242-310 antigen is performed by ELISA. Binding of antigen is done in 96-well microtiter plates (Maxisorp F96, Nunc, DK) by conducting overnight incubation in a moist chamber at 4° C. with each well containing 0.1 ml of PBS (phosphate buffered saline) containing 0.001 mg/ml of Pb CS His6242-310 antigen. Blocking of the microtiter plate is performed with PBS containing 1% of bovine serum albumin (BSA, Fluka, Switzerland). Plates are washed with PBS containing 0.05% Tween 20 (Sigma, St. Louis, Mo., USA). Serum samples collected at 0, 3, 7 and 9 weeks are serially diluted with dilution buffer (PBS containing 2.5% of skimmed milk powder and 0.05% of Tween 20), then transferred into a microtiter plate and allowed to stand for 1 hr. at room temperature (RT). Plates are then washed with PBS, a diluted solution containing mouse polyclonal anti-immunoglobulin coupled to alkaline phosphatase (Sigma, St. Louis, Mo., USA) is then dispensed into those plates and incubated for 1 hr. at RT. […] Absorbance at 405 nm is read with a microtiter plate reader (Dynatech 25000 ELISA reader, Ashford, Middlesex, UK), each serum sample is measured in duplicate. Results stand for the mean of all measurements relating to mice in each group.

DC-6 cells = experiment: α TNF production by predendritic cells at DC-6 stage (ELISA); conditions: 10 μg/ml; 4, 6 and 24 hr; FIG. 10
H1N1 antigen = experiment: Subcutaneous immunization with H1N1 antigen: specific serum immunoglobulins (ELISA); format: in vivo, BALB/c mice; conditions: for Immunoglobulins specifically raised against H1N1 of IgG1 subclass / Immunoglobulins specifically raised against H1N1 of IgG2a subclass / Immunoglobulins specifically raised against H1N1 of IgM subclass: s.c. injections days 0 and 14, H1N1 2.5 μg, adjuvant 50 μg per injection, ± SD; for adjuvant effect on titer of antibodies specifically raised against H1N1: after one or two injections, FIGS. 22-24

| SMILES | CTL activity of lymphocytes from spleen and inguinal lymph nodes (γ IFN spots) [1] | LAL activity in LPS equivalents [2] [ng eq. LPS/mg] | LAL activity in EU/mg [2] [EU/mg] | production of nitric oxide by murine macrophage cells (murine macrophage cells) | serological response following three shots [3] | anti-Pb CS His6-242-310 antibody titer after one single shot [3] | serological response after two shots [3] | α TNF production by DC-6 cells (DC-6 cells) | Immunoglobulins specifically raised against H1N1 of IgG1 subclass (H1N1 antigen; Day 14) [Arbitrary units/ml] | Immunoglobulins specifically raised against H1N1 of IgG2a subclass (H1N1 antigen; Day 14) [Arbitrary units/ml] | Immunoglobulins specifically raised against H1N1 of IgM subclass (H1N1 antigen; Day 14) [Arbitrary units/ml] | Immunoglobulins specifically raised against H1N1 of IgG1 subclass (H1N1 antigen; Day 28) [Arbitrary units/ml] | Immunoglobulins specifically raised against H1N1 of IgG2a subclass (H1N1 antigen; Day 28) [Arbitrary units/ml] | Immunoglobulins specifically raised against H1N1 of IgM subclass (H1N1 antigen; Day 28) [Arbitrary units/ml] | adjuvant effect on titer of antibodies specifically raised against H1N1 (H1N1 antigen) |
| --- | --- | --- | --- | --- | --- | --- | --- | --- | --- | --- | --- | --- | --- | --- | --- |
| CCCCCCCCCCCC(=O)O[C@H](CCCCCCCCCCC)CC(=O)NC(CCOP(=O)(O)O)C(=O)NCCCC(CO)NC(=O)C[C@H](O)CCCCCCCCCCC (stereo partly drawn) [OM-294-MP, 3-[(R)-3-dodecanoyloxytetradecanoylamino]-4-oxo-5-aza-9-[(R)-3-hydroxytetradecanoylamino]-decane-1,10-diol 1-dihydrogenphosphate] | clearly superior to the one induced by IFA | 1.4 | 13 ± 2 | weaker response | greater than that of IFA | almost as high as the response observed with Incomplete Freund's Adjuvant (IFA) | greater than that of IFA | in a way similar to LPS | 69 ± 34 | 1619 ± 743 | 19065 ± 4069 | 59 ± 31 | 1767 ± 1034 | 18018 ± 1016 | significantly increase the titer of antibodies specifically raised against H1N1 |
| CCCCCCCCCCCC(=O)O[C@H](CCCCCCCCCCC)CC(=O)NC(CCOP(=O)(O)O)C(=O)NCCCC(COP(=O)(O)O)NC(=O)C[C@H](O)CCCCCCCCCCC (stereo partly drawn) [OM-294-DP, 3-[(R)-3-dodecanoyloxytetradecanoylamino]-4-oxo-5-aza-9-[(R)-3-hydroxytetradecanoylamino]decan-1,10-diol 1, 10-bis(dihydrogenphosphate)] | clearly superior to the one induced by IFA | 6.2 | 56 ± 48 | to a much greater extent than E. coli LPS | greater than that of IFA | almost as high as the response observed with Incomplete Freund's Adjuvant (IFA) | greater than that of IFA | only a minor stimulating effect | 59 ± 21 | 452 ± 584 | 20756 ± 7160 | 38 ± 25 | 782 ± 857 | 20944 ± 9065 | significantly increase the titer of antibodies specifically raised against H1N1 |
